Consider 15 compounds from ChEMBL document CHEMBL4411302, “Aryl H-phosphonates. 19. New anti-HIV pronucleotide phosphoramidate diesters containing amino- and hydroxypyridine auxiliaries” (Eur J Med Chem, 2019).

Data set [1] in a line: Selectivity index, ratio of CC50 for human CEM-T4 cells to EC50 for HIV1 infected in human CEM-T4 cells. Format: toxicity, cell-based. The note with it: read-out: Ratio CC50/EC50.
Data set [2] deals with Human immunodeficiency virus 1. Nature of the data set: Antiviral activity against HIV1 infected in human CEM-T4 cells assessed as protection against virus-induced cytopathogenicity by measuring reduction in p24 level preincubated with cells for 24 hrs followed by viral infection and measured after 8 days by MTT assay. Format: functional, organism-based.
The nature of data set [3]: Cytotoxicity against human CEM-T4 cells assessed as reduction in cell viability after 7 days by MTT assay. As to conditions: for CC50 at 168 h: CEM-T4 cells; for CC50: 168 h. Format: cell-based.
Data set [4] is described as follows: Half life of the compound in RPMI media at 37 degC. Format: physicochemical. The note with it: for half-life: RPMI media.
Data set [5] can be described thus: Prodrug activation in RPMI media assessed as hydrolysis by measuring P-O bond cleavage.
Data set [6] in a line: Stability of the compound in RPMI media up to 7 days. As to conditions: 168 h. Format: physicochemical.
The nature of data set [7]: Prodrug activation in RPMI media assessed as hydrolysis by measuring P-O bond cleavage measured after 24 days. As to conditions: 576 h.
[8] abbreviates: Human immunodeficiency virus 1, CEM-T4, read-out: EC50.

`O=c1ccn([C@H]2CC[C@@H](COP(=O)(Nc3ccccc3)Oc3cccnc3)O2)c(=O)[nH]1` (stereo partly specified): in data set [1], the selectivity ratio came out at 31. Also, in data set [2] (setting [8]), the EC50 is 7.3 µM. Further, in data set [3], the CC50 at 168 h amounted to 225 µM. This compound also gave a half-life in data set [4] of 120 h.

In the case of `Cc1cn([C@H]2C[C@H](N=[N+]=[N-])[C@@H](COP(=O)(Nc3cccnc3)Oc3ccccc3)O2)c(=O)[nH]c1=O` (stereo partly specified), the selectivity ratio in data set [1] is more than 11400. Besides, the EC50 in data set [2] (setting [8]) is 0.035 µM. For the same compound, in data set [3], the CC50 at 168 h was more than 400 µM. The compound further gave a half-life in data set [4] of 168 h.

Take `O=c1ccn([C@H]2CC[C@@H](COP(=O)(Nc3cccnc3)Oc3cccnc3)O2)c(=O)[nH]1` (stereo partly specified): in data set [1], the selectivity ratio was more than 364. Also, the EC50 in data set [2] (setting [8]) stood at 0.55 µM. For the same compound, in data set [3], the CC50 at 168 h is more than 200 µM. Further, the half-life in data set [4] was 20 h.

For `Cc1cn([C@H]2C[C@H](N=[N+]=[N-])[C@@H](COP(=O)(Nc3ccncc3)Oc3ccccn3)O2)c(=O)[nH]c1=O` (stereo partly specified), the selectivity ratio in data set [1] was more than 250. In addition, the EC50 in data set [2] (setting [8]) was 0.16 µM. Besides, the CC50 at 168 h in data set [3] was more than 50 µM. Further, the half-life in data set [4] is 120 h.

`Cc1cn([C@H]2C[C@H](N=[N+]=[N-])[C@@H](COP(=O)(Nc3ccccc3)Oc3cccnc3)O2)c(=O)[nH]c1=O` (stereo partly specified): the selectivity ratio in data set [1] is more than 30000. The EC50 in data set [2] (setting [8]) was less than 0.012 µM. In data set [3], the CC50 at 168 h was 360 µM. In data set [4], the half-life is 82 h.

For the compound `Cc1cn([C@H]2C[C@H](N=[N+]=[N-])[C@@H](COP(=O)(Nc3cccnc3)Oc3ccncc3)O2)c(=O)[nH]c1=O` (stereo partly specified), in data set [2], the half-maximal effective concentration (EC50) entry is given as “Nd(Unstable)”. In addition, the Drug metabolism entry in data set [5] was “Nd(Unstable)”. The CC50 result in data set [3] is on record as “Nd(Unstable)”. In data set [4], the t1/2 result is recorded as “Nd(Unstable)”.

In the case of `Cc1cn([C@H]2C[C@H](N=[N+]=[N-])[C@@H](COP(=O)(Nc3ccccc3)Oc3ccncc3)O2)c(=O)[nH]c1=O` (stereo partly specified), the EC50 result in data set [2] is on record as “Nd(Unstable)”. The Drug metabolism result in data set [5] was “Nd(Unstable)”. Also, in data set [3], the CC50 entry is recorded as “Nd(Unstable)”. Besides, the t1/2 entry in data set [4] is “Nd(Unstable)”.

Take `Cc1cn([C@H]2C[C@H](N=[N+]=[N-])[C@@H](COP(=O)(Nc3cccnc3)Oc3cccnc3)O2)c(=O)[nH]c1=O` (stereo partly specified): in data set [1], the selectivity ratio is more than 10000. For the same compound, the EC50 in data set [2] (setting [8]) was less than 0.02 µM. For the same compound, the CC50 at 168 h in data set [3] was more than 200 µM. The compound further showed a half-life in data set [4] of 27 h.

Regarding `Cc1cn([C@H]2C[C@H](N=[N+]=[N-])[C@@H](COP(=O)(Nc3cccnc3)Oc3ccccn3)O2)c(=O)[nH]c1=O` (stereo partly specified), the selectivity ratio in data set [1] was more than 3300. The EC50 in data set [2] (setting [8]) worked out at 0.06 µM. In data set [3], the CC50 at 168 h is more than 200 µM. Besides, the half-life in data set [4] was 33 h.

As for `Cc1cn([C@H]2C[C@H](N=[N+]=[N-])[C@@H](COP(=O)(Nc3ccccc3)Oc3ccccc3)O2)c(=O)[nH]c1=O` (stereo partly specified), the selectivity ratio in data set [1] was more than 890. The EC50 in data set [2] (setting [8]) worked out at 0.075 µM. In data set [6], the Stability result is given as “Stable”. In addition, the CC50 at 168 h in data set [3] was more than 66.8 µM. The Drug metabolism result in data set [7] is given as “Metabolite_Detected”.

Turning to `Cc1cn([C@H]2C[C@H](N=[N+]=[N-])[C@@H](COP(=O)(Nc3ccncc3)Oc3ccccc3)O2)c(=O)[nH]c1=O` (stereo partly specified), in data set [1], the selectivity ratio is more than 8000. For the same compound, the EC50 in data set [2] (setting [8]) stood at 0.05 µM. Moreover, the CC50 at 168 h in data set [3] is more than 400 µM. Further, the half-life in data set [4] was 192 h.

With `Cc1cn([C@H]2C[C@H](N=[N+]=[N-])[C@@H](COP(=O)(Nc3ccccc3)Oc3ccccn3)O2)c(=O)[nH]c1=O` (stereo partly specified), in data set [1], the selectivity ratio is more than 1830. In data set [2] (setting [8]), the EC50 was less than 0.012 µM. Further, in data set [3], the CC50 at 168 h is more than 22 µM. In data set [4], this compound gave a half-life of 45 h.

In the case of `Cc1cn([C@H]2C[C@H](N=[N+]=[N-])[C@@H](COP(=O)(Nc3ccncc3)Oc3cccnc3)O2)c(=O)[nH]c1=O` (stereo partly specified), the selectivity ratio in data set [1] is more than 250. In addition, the EC50 in data set [2] (setting [8]) came to 0.2 µM. In addition, the CC50 at 168 h in data set [3] is more than 50 µM. This compound also had a half-life in data set [4] of 105 h.

Turning to `Cc1cn([C@H]2C[C@H](N=[N+]=[N-])[C@@H](COP(=O)(Nc3ccncc3)Oc3ccncc3)O2)c(=O)[nH]c1=O` (stereo partly specified), the EC50 entry in data set [2] is reported as “Nd(Unstable)”. The Drug metabolism entry in data set [5] is reported as “Nd(Unstable)”. Moreover, the CC50 result in data set [3] is “Nd(Unstable)”. In data set [4], the t1/2 entry was “Nd(Unstable)”.

In the case of `O=c1ccn([C@H]2CC[C@@H](COP(=O)(Nc3cccnc3)Oc3ccccc3)O2)c(=O)[nH]1` (stereo partly specified), in data set [1], the selectivity ratio was less than 7.5. In addition, the EC50 in data set [2] (setting [8]) is more than 30 µM. The CC50 at 168 h in data set [3] was determined as 225 µM. In data set [4], the half-life is 168 h.
